Read-outs that look alike come from different tables or passages of the source.
Biological target: human serum albumin (HSA) (Homo sapiens, UniProt P02768)
Assay: HSA refolding with ligand assistance (ED50 for refolding)
Protocol: Sodium caprate is added to Solution B to a final concentration of 10 mM. Solution B is held at 37° C. for 1-5 minutes.
Step C. […] Sodium caprate is added to Solution C to a final concentration of 10 mM. Solution C is held at 37° C. for a period of 30 minutes.

human serum albumin (HSA), sequence (P02768 25-609): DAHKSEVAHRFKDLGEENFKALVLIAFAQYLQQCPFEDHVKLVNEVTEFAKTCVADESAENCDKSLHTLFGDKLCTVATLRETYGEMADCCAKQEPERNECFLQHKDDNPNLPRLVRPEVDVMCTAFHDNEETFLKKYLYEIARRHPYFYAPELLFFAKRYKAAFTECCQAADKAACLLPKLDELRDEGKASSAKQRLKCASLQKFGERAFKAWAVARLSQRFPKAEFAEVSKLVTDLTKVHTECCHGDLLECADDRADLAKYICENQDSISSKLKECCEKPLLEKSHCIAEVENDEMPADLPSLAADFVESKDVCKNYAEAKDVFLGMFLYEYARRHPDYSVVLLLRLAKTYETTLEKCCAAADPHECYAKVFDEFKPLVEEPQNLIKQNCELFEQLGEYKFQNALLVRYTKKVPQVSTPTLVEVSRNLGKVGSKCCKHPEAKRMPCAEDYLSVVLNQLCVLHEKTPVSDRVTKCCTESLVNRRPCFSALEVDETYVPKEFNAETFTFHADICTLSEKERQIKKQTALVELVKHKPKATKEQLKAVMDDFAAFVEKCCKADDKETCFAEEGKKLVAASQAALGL

CCCCO [1-Butanol (C4), 1-Butanol]
Optimal Concentration (refolding ligand) (Table 1): 500 mM

CCCCCCCCCCO [1-Decanol (C10), 1-Decanol]
EC50: 300 µM | Optimal Concentration (refolding ligand) (Table 1): 3 mM

CCCCCCCCCCCCO [1-Dodecanol (C12), 1-Dodecanol]
EC50: 230 µM | Optimal Concentration (refolding ligand): 0.3 mM (saturated)

CCCCCCO [1-Hexanol (C6), 1-Hexanol]
Optimal Concentration (refolding ligand) (Table 1): 25 mM

CCCCCCCCO [1-Octanol (C8), 1-Octanol]
EC50: 450 µM | Optimal Concentration (refolding ligand) (Table 1): 3 mM

CCCCCO [1-Pentanol (C5), 1-Pentanol]
Optimal Concentration (refolding ligand) (Table 1): 150 mM

CCCCCC(=O)[O-].[Na+] [Na Caproate, sodium caproate]
Optimal Concentration (refolding ligand) (Table 1): >30 mM

CCCCCCCCCCCC(=O)[O-].[Na+] [Na Laurate, sodium laurate]
EC50: 45 µM | Optimal Concentration (refolding ligand) (Table 1): 1 mM

CCCCOC(=O)c1ccc(N)cc1 [n-butyl p-aminobenzoate]
EC50: 800 µM

Reference: patent US20050209441A1, “Process for promoting proper folding of human serum albumin using a human serum albumin ligand” (priority 2004, published 2005)
